Results as given in ChEMBL document CHEMBL1201862, “PubChem BioAssay data set” (2004).
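Cultured in 96-well plates, cells were exposed to test compound for 48 hours across five concentrations. Abbreviation: GI50, concentration required for 50% inhibition of growth.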 The source made the active and inactive calls. Rule as the data show it: active = GI50 up to about 1.1 µM and inactive = higher.

Tests used:
Test in all cases: NCI tumour cell line growth inhibition, 48 h
RXF 631 = system: RXF 631
LXFL 529 = system: LXFL 529
DMS-114 = system: DMS-114
SNB-78 = system: SNB-78
DLD-1 = system: DLD-1
BT-549 = system: BT-549
XF498 = system: XF498
M19-MEL = system: M19-MEL
HOP-18 = system: HOP-18

Question: What does the source list for `COc1cc(C(=O)N2CCc3c([nH]c4c([N+](=O)[O-])c(OC)ccc34)C2C)cc(OC)c1OC` (centres undefined)?
Answer: GI50 (RXF 631): 79.6 µM (inactive); GI50 (LXFL 529): > 100 µM (inactive); GI50 (DMS-114): > 100 µM (inactive); GI50 (SNB-78): 58.7 µM (inactive); GI50 (DLD-1): > 100 µM (inactive)

Question: Which GI50 (BT-549) does the source give for `Cc1cc(C)nc(NC(P(=O)(O)O)P(=O)(O)O)n1` here?
Answer: The GI50 was > 100 µM (inactive).

Question: What does the source list for `CC(C)C12Cc3c(ccc4ccccc34)OC1(C)Oc1ccc3ccccc3c1C2` (centres undefined)?
Answer: GI50 (LXFL 529): > 100 µM (inactive); GI50 (DMS-114): 25.6 µM (inactive); GI50 (SNB-78): > 100 µM (inactive); GI50 (DLD-1): > 100 µM (inactive); GI50 (XF498): > 100 µM (inactive)

Question: With `O=C(Nc1ccccc1)OCCN=c1c2ccccc2ccc2ccccc12` as the compound, how does the GI50 (BT-549) read?
Answer: The GI50 was 13 µM (inactive).

Question: For `Cc1cc(=O)n2nc(SCc3ccccc3)sc2n1`, which GI50 (BT-549) is on record?
Answer: The GI50 was > 100 µM (inactive).

Question: How did the GI50 (RXF 631) turn out when `CCOC(=O)C(=O)Nc1cc(Cl)c(Cl)cc1Cl` was run?
Answer: The GI50 was > 100 µM (inactive).

Question: What about the GI50 (M19-MEL) of the same compound?
Answer: Its GI50 is > 100 µM (inactive).

Question: What about the GI50 (LXFL 529) of the same compound?
Answer: The GI50 was > 100 µM (inactive).

Question: And the GI50 (DMS-114)?
Answer: Its GI50 is > 100 µM (inactive).

Question: And the GI50 (SNB-78)?
Answer: Its GI50 is > 100 µM (inactive).

Question: How did the GI50 (M19-MEL) turn out when `CCc1cc(Cc2cc(CC)c(NC(=O)C(=O)Cc3ccccn3)c(CC)c2Cl)c(Cl)c(CC)c1NC(=O)C(=O)Cc1ccccn1` was run?
Answer: Its GI50 is > 100 µM (inactive).

Question: What about the GI50 (LXFL 529) of the same compound?
Answer: The GI50 was 53 µM (inactive).

Question: And the GI50 (DMS-114)?
Answer: Its GI50 is 96.8 µM (inactive).

Question: And the GI50 (HOP-18)?
Answer: The GI50 was > 100 µM (inactive).

Question: And the GI50 (SNB-78)?
Answer: The GI50 was > 100 µM (inactive).

Question: What about the GI50 (DLD-1) of the same compound?
Answer: Its GI50 is > 100 µM (inactive).

Question: And the GI50 (XF498)?
Answer: The GI50 was > 100 µM (inactive).

Question: With `O=C1Nc2ccccc2Nc2nc3cccccc-3c21` as the compound, how does the GI50 (M19-MEL) read?
Answer: The GI50 was > 100 µM (inactive).

Question: What about the GI50 (LXFL 529) of the same compound?
Answer: The GI50 was > 100 µM (inactive).

Question: What about the GI50 (DMS-114) of the same compound?
Answer: The GI50 was > 100 µM (inactive).

Question: And the GI50 (SNB-78)?
Answer: Its GI50 is > 100 µM (inactive).

Question: What about the GI50 (DLD-1) of the same compound?
Answer: Its GI50 is > 100 µM (inactive).

Question: What about the GI50 (XF498) of the same compound?
Answer: Its GI50 is > 100 µM (inactive).

Question: With `Cc1ccc2c(c1C)CC1(Cc3ccc(C)c(C)c3C1=O)C2=O` (centres undefined) as the compound, how does the GI50 (BT-549) read?
Answer: Its GI50 is > 100 µM (inactive).

Question: For `COc1ccc(OC)c(-c2cc(O)c3cc4c(cc3n2)OCO4)c1`, which GI50 (M19-MEL) is on record?
Answer: Its GI50 is 4.21 µM (inactive).

Question: What about the GI50 (LXFL 529) of the same compound?
Answer: Its GI50 is 6.92 µM (inactive).

Question: What about the GI50 (DMS-114) of the same compound?
Answer: Its GI50 is 3.68 µM (inactive).

Question: What about the GI50 (HOP-18) of the same compound?
Answer: Its GI50 is > 96.2 µM (inactive).

Question: What about the GI50 (SNB-78) of the same compound?
Answer: Its GI50 is 6.98 µM (inactive).

Question: What about the GI50 (DLD-1) of the same compound?
Answer: Its GI50 is 3.57 µM (inactive).

Question: What about the GI50 (XF498) of the same compound?
Answer: Its GI50 is 4.42 µM (inactive).

Question: How did the GI50 (RXF 631) turn out when `NCCNCc1c2ccccc2c(CNCCN)c2ccccc12` was run?
Answer: The GI50 was 45.7 µM (inactive).

Question: And the GI50 (M19-MEL)?
Answer: Its GI50 is 14.8 µM (inactive).

Question: And the GI50 (LXFL 529)?
Answer: The GI50 was 5.86 µM (inactive).

Question: What about the GI50 (DMS-114) of the same compound?
Answer: The GI50 was 11.6 µM (inactive).

Question: And the GI50 (HOP-18)?
Answer: The GI50 was 25.7 µM (inactive).

Question: And the GI50 (SNB-78)?
Answer: Its GI50 is 12.7 µM (inactive).

Question: What about the GI50 (DLD-1) of the same compound?
Answer: The GI50 was 53.1 µM (inactive).

Question: `Cc1cc(C)c(C(=O)O)c(N)c1O` was tested. Which GI50 (M19-MEL) did it give?
Answer: Its GI50 is > 100 µM (inactive).

Question: And the GI50 (LXFL 529)?
Answer: Its GI50 is > 100 µM (inactive).

Question: What about the GI50 (DMS-114) of the same compound?
Answer: Its GI50 is > 100 µM (inactive).

Question: And the GI50 (DLD-1)?
Answer: Its GI50 is > 100 µM (inactive).

Question: How did the GI50 (BT-549) turn out when `N#CC(C#N)=CNCCN1CCN(C=C(C#N)C#N)CC1` was run?
Answer: Its GI50 is > 100 µM (inactive).

Question: `O=C1c2cccc3cc([N+](=O)[O-])cc(c23)C(=O)N1O` was tested. Which GI50 (BT-549) did it give?
Answer: Its GI50 is 28.6 µM (inactive).

Question: `CS(=O)(=O)OCCCSCCSCCCOS(C)(=O)=O` was tested. Which GI50 (BT-549) did it give?
Answer: The GI50 was > 100 µM (inactive).

Question: For `O=C(Nc1ccc2ncccc2c1)c1cc2c(cc1Cl)Sc1nccn1S2(=O)=O`, which GI50 (BT-549) is on record?
Answer: The GI50 was 15.6 µM (inactive).

Question: How did the GI50 (BT-549) turn out when `Nc1cc(F)ccc1CC(=O)O` was run?
Answer: Its GI50 is 79.3 µM (inactive).

Question: Which GI50 (BT-549) does the source give for `CCSc1s/c(=N/c2ccc(/N=c3\sc(C)c(SC)s3)cc2)sc1-c1ccc(C)cc1` here?
Answer: The GI50 was > 100 µM (inactive).

Question: Which GI50 (BT-549) does the source give for `C=CC1=C(C)c2cc3[nH]c(c4c5nc(cc6[nH]c(cc1n2)c(C)c6CC)C(C)=C5C(=O)[C@@H]4C(=O)OC)[C@@H](CCC(=O)O)[C@@H]3C` here?
Answer: Its GI50 is 2.31 µM (inactive).

Question: With `CC(=O)N1N=C(c2ccc3ccccc3c2O)CC1c1ccc(N(C)C)cc1` (centres undefined) as the compound, how does the GI50 (BT-549) read?
Answer: Its GI50 is > 100 µM (inactive).

Question: For `NC(Cc1c[nH]c2ccc([N+](=O)[O-])cc12)C(=O)O` (centres undefined), which GI50 (BT-549) is on record?
Answer: Its GI50 is > 100 µM (inactive).

Question: How did the GI50 (BT-549) turn out when `COC(=O)C1=C(OC(=O)/C(=C/c2ccc(Cl)cc2Cl)c2ccc(Cl)cc2Cl)C(C(=O)OC)[C@@]2(O)[C@@H](C(=O)OC)[C@H](C)C[C@@H]1[C@@H]2C(=O)OC` (some centres undefined) was run?
Answer: Its GI50 is > 100 µM (inactive).

Question: `O=CN1CCN(C(=O)c2cc(Cl)cc(Cl)c2)C1=S` was tested. Which GI50 (BT-549) did it give?
Answer: Its GI50 is 17.3 µM (inactive).

Question: `Oc1[nH]c(Nc2cccc(CC(F)(F)F)c2)nc2ncnc1-2` was tested. Which GI50 (BT-549) did it give?
Answer: The GI50 was > 100 µM (inactive).

Question: For `COc1ccc(NC(=O)CC(=O)NN2C(=O)/C(=C/c3ccc(N(CCC#N)CCC#N)cc3C)N=C2/C=C\c2ccccc2)cc1`, which GI50 (M19-MEL) is on record?
Answer: The GI50 was > 100 µM (inactive).

Question: And the GI50 (LXFL 529)?
Answer: The GI50 was > 100 µM (inactive).

Question: What about the GI50 (HOP-18) of the same compound?
Answer: The GI50 was 18.5 µM (inactive).

Question: What about the GI50 (SNB-78) of the same compound?
Answer: The GI50 was > 100 µM (inactive).

Question: What about the GI50 (DLD-1) of the same compound?
Answer: The GI50 was > 100 µM (inactive).

Question: How did the GI50 (BT-549) turn out when `CCOC(=O)c1cc(C#N)[nH]c1-c1ccsc1` was run?
Answer: Its GI50 is 34.8 µM (inactive).

Question: For `COc1ccc(OC)c(NC(=O)CCC/C(CC(=O)c2ccc(O)c(OC)c2)=N\Nc2nnc(C)n2N)c1`, which GI50 (M19-MEL) is on record?
Answer: The GI50 was > 100 µM (inactive).

Question: And the GI50 (LXFL 529)?
Answer: Its GI50 is > 100 µM (inactive).

Question: What about the GI50 (DMS-114) of the same compound?
Answer: Its GI50 is 95.7 µM (inactive).

Question: What about the GI50 (HOP-18) of the same compound?
Answer: Its GI50 is > 100 µM (inactive).

Question: And the GI50 (DLD-1)?
Answer: Its GI50 is > 100 µM (inactive).

Question: And the GI50 (XF498)?
Answer: The GI50 was > 100 µM (inactive).

Question: Which GI50 (BT-549) does the source give for `CC(=O)OC1CCC2(C)C(CCC3C4CC=C(C5(C)OCCO5)C4(C)CCC32)C1` (centres undefined) here?
Answer: The GI50 was 20.6 µM (inactive).

Question: How did the GI50 (BT-549) turn out when `O=C1C(C(O)(C(F)(F)Cl)C(F)(F)Cl)CCC1C(O)(C(F)(F)Cl)C(F)(F)Cl` (centres undefined) was run?
Answer: The GI50 was 4.35 µM (inactive).

Question: How did the GI50 (BT-549) turn out when `CC(C)OC(=O)c1ccc(CCc2cc(O)c(Br)cc2O)cc1` was run?
Answer: The GI50 was 16.4 µM (inactive).

Question: Which GI50 (BT-549) does the source give for `COc1ccc(Oc2cnn(C(Br)(Br)C(C)=O)c(=O)c2Br)cc1` here?
Answer: The GI50 was 17.3 µM (inactive).

Question: How did the GI50 (BT-549) turn out when `Cc1cn(C(=O)NC23CC4CC(CC(C4)C2)C3)c(=O)[nH]c1=O` was run?
Answer: Its GI50 is 21.8 µM (inactive).
